Laboratory results published in US20230416329A1, “A PEPTIDE WITH DISULFIDE BONDS AND INHIBITORY ACTIVITY AGAINST SERINE PROTEASES, DERIVED HYBRID PEPTIDES THEREOF, AND USES THEREOF” (INSTITUTE OF MATERIA MEDICA , CHINESE ACADEMY OF MEDICAL …, priority 2020, published 2023).
Bridge positions count the residues as written; N and C are the ends. Ends that are not written are not given here.

Assays:
normal ICR mice = assay: In vivo hypoglycemic activity of GLP-1 analogues, subcutaneous administration, oral glucose loading; parameters: species or system mouse; details: normal ICR mice, 1 μmol/kg s.c., glucose 2 g/kg by gavage
Protocol: FIG. 21. In vivo hypoglycemic activities of GLP-1 analogues by subcutaneous administration. Normal ICR mice were subcutaneously injected with GLP-1 and its analogues or corresponding volumes of saline (1.0 μmol/kg, n=10). After 30 min, glucose solution (2 g/kg) was administered by gavage, and blood was collected from the tail tip at 30, 60, and 120 min after glucose administration. Blood glucose was measured using glucose oxidase method, and blood glucose values and area under the blood glucose curve (AUC) were calculated at each timepoint.
The day before the experiment, all of the animals were fasted for 15-16 hours with water ad libitum. On the day of the experiment, the animals were randomly divided according to body weight (n=10). Firstly, the blood was collected from the tail tip at 0 hour, and then the animals were administered subcutaneously with GLP-1 analog (SEQ ID NOs: 194-201, 1 μmol/kg) or saline. After 30 minutes, the animals were administered by gavage with glucose solution (2 g/kg), and the blood was collected from the tail tip at 30, 60, and 120 minutes later. Blood glucose was measured using glucose oxidase method. The blood glucose and area under the blood glucose-time curve (AUC) were calculated.

[1] = target: T1, interaction of PCSK9-LDLR (Homo sapiens, UniProt Q8NBP7); assay: PCSK9-LDLR in vitro binding assay (inhibitory rate); details: in vitro
T1 construct: purchased MBL Company, Beijing, China CY-8150
Protocol: Polypeptide PCSK9_1-14 (SEQ ID NOs: 210-223) is dissolved in pure water or DMSO. 85 μL reaction buffer, 5 μL 1 mM polypeptide sample and 10 μL 750 ng/mL PCSK9 protein was pre-incubated at room temperature for 20 minutes before being added to a 96 well plate. The OD450/540 nm value was measured according to the instructions of the PCSK9-LDLR in Vitro Binding Assay Kit (CY-8150, MBL Company, Beijing, China). Solvent control: replace polypeptide with 5 μL solvent. In 100 μL reaction system, the final concentration of the polypeptide and PCSK9 is 50 μM and 75 ng/mL, respectively.
Inhibition rate of polypeptide (%)=(OD450/540 nm(solvent control)−OD450/540 nm (sample))/OD450/540 nm(solvent control)×100

[2] = tested on: P407-induced hyperlipidemia mice; assay: Subcutaneous injection of PCSK9 inhibitory peptide, serum total cholesterol in P407-induced hyperlipidemia mice; format: in vivo, mouse; details: for serum total cholesterol (TC) level after subcutaneous injection (in words): 2 μmol/kg single s.c., P407-induced hyperlipidemia mice; for TC 15 min / TC 30 min / TC 60 min / TC 90 min: serum, subcutaneous 2 μmol/kg, mean ± sd; for TC 15 min: 15 min after administration; for TC 30 min: 30 min after administration; for TC 60 min: 60 min after administration; for TC 90 min: 90 min after administration
Protocol: The experimental peptide sample was prepared using PEG400 with a final concentration of […], and the final concentration of PEG400 is 20% (w/v). Normal ICR mice were fasted overnight with water ad libitum. The next day, all of the mice were randomly divided into model control group (Con) and polypeptide administration group (2 μmol/kg) according to body weight. Then, all of the mice were intraperitoneally injected with P407 (500 mg/kg) and fed with feed 2 hours later. Six mice were taken as a normal control group (Nor). After 24 hours, the mice in Con were subcutaneously injected with saline containing 20% PEG400, and the mice in the treatment group were given peptides. Then, the blood was taken at different time points after administration to determine the serum total cholesterol (TC) level. In consideration of the complexity of factors affecting serum LDL-C levels, especially the differences between single and long-term administration, the in vivo activity of PCSK9 inhibitory peptide is mainly observed for changes in serum TC levels.

Substance: Ac-Cys-Gly-Arg-Ala-Thr-Lys-Ser-Ile-Pro-Pro-Ile-Cys-Phe-Gly-Gly-Ile-Pro-Ile-Gly-Gly-His-Ala-Glu-Gly-Thr-Phe-Thr-Ser-Asp-Val-Ser-Ser-Tyr-Leu-Glu-Gly-Gln-Ala-Ala-Lys-Glu-Phe-Ile-Ala-Trp-Leu-Val-Lys-Gly-Arg-Gly-Gly-Lys-NH2 (Ac-CGRATKSIPPICFGGIPIGGHAEGTFTSDVSSYLEGQAAKEFIAWLVKGRGGK-NH2; disulfide 1-12 (inferred)) [Acetylated and Amidated SEQ ID NO: 198]
- hypoglycemic activity, subcutaneous injection (in words) (normal ICR mice): did not show any significant differences in their hypoglycemic activity compared to the unmodified molecules

Substance: Trp-Glu-Glu-Ala-Leu-Asp-Trp-Val-Gly-Ile-Cys-Thr-Ala-Ser-Ile-Pro-Pro-Ile-Cys-Gln-Gly-Thr-Val-Phe-Thr-Ser (WEEALDWVGICTASIPPICQGTVFTS; disulfide 11-19 (inferred)) [PCSK9_5EC]
- inhibitory activity on the interaction between PCSK9 and LDLR (in words) [1]: good inhibitory activity on the interaction between PCSK9 and LDLR
- inhibitory activity on the interaction between PCSK9 and LDLR (in words) ([1]; listed as SEQ ID NO: 229): good inhibitory effects in vitro
- serum total cholesterol (TC) level after subcutaneous injection (in words) [2]: reduced serum TC level
- serum total cholesterol (TC) level after subcutaneous injection (in words) ([2]; listed as SEQ ID NO: 229): excellent lowering lipid (total cholesterol) activities in vivo
- TC 15 min [2]: 2669 ± 520 µg/mL
- TC 30 min [2]: 2231 ± 795 µg/mL
- TC 60 min [2]: 2577 ± 466 µg/mL
- TC 90 min [2]: 2532 ± 425 µg/mL

Substance: Trp-Glu-Glu-Ala-Leu-Asp-Trp-Val-Gly-Phe-Cys-Thr-Tyr-Ser-Ile-Pro-Pro-Gln-Cys-Tyr-Gly-Thr-Val-Phe-Thr-Ser (WEEALDWVGFCTYSIPPQCYGTVFTS; disulfide 11-19 (inferred)) [PCSK9_5CH]
- inhibitory activity on the interaction between PCSK9 and LDLR (in words) [1]: good inhibitory activity on the interaction between PCSK9 and LDLR
- inhibitory activity on the interaction between PCSK9 and LDLR (in words) ([1]; listed as SEQ ID NO: 228): good inhibitory effects in vitro
- TC 15 min [2]: 3002 ± 716 µg/mL
- TC 30 min [2]: 3067 ± 685 µg/mL
- TC 60 min [2]: 3023 ± 1035 µg/mL
- TC 90 min [2]: 2705 ± 741 µg/mL
